This note sets out measurements from article PMC2532997, “Methoxylation enhances stilbene bioactivity in Caenorhabditis elegans” (BMC Pharmacology, 2008).

Series [1] can be described thus: Determination of stilbene uptake (steady-state levels by GC-MS). In kind it is in vivo, Caenorhabditis elegans. The following applies: animals treated for 2 days with 100 μM in the culture medium. An excerpt: The differential bioactivities of methoxylated and hydroxylated stilbenes in C. elegans adults might reflect differences in uptake or bioavailability. In general, intact C. elegans adults take up compounds relatively poorly due to their thick, impermeable cuticle. This impermeability has impeded pharmacodynamic analysis in this organism. However, steady-state levels of compounds can be measured in treated animals to provide one measure of pharmacodynamics. To assess whether differential uptake correlated with bioactivity in C. elegans, steady-state levels for pterostilbene, resveratrol-trimethylether and desoxyrhapontigenin were determined in animals treated for 2 days with 100 μM of each compound in the culture medium. […] These concentrations were within the range of serum stilbene levels detected after dietary stilbene supplementation with human volunteers (approx. 2 μM) and rabbits (42.8 μM). […]
Uptake was determined for three stilbenes (desoxyrhapontigenin, pterostilbene and resveratrol-trimethylether) by measuring the steady-state levels of each stilbene in adult fem-1(hc17) hermaphrodites treated under the same conditions as those used for survival assays. […] Derivatized sample was analyzed for stilbenes by gas chromatography-mass spectrometry (GC-MS). […] Quantitation was performed from calibration curve of authentic stilbene samples. […]

The subject of series [2] is C. elegans fem-1(hc17) sterile adults. Description: Adult survival assay of sterile fem-1(hc17) adults on compound-supplemented medium. In kind it is in vivo, Caenorhabditis elegans. The procedure: For survival assays, young adult (day 0) animals were transferred onto fresh medium supplemented with the test compound at a range of concentrations. The compounds were tested at indicated concentrations in the growth medium (below). C. elegans nematodes are surrounded by a thick collagenous cuticle and are therefore relatively impermeable to environmental compounds. […] Survival was scored every 2–3 days as the ability to move in response to a gentle mechanical stimulus. During the first week of adulthood, C. elegans hermaphrodites are reproductively competent and normally produce 200–300 progeny. Since progeny production would complicate survival analysis, these experiments were performed using fem-1(hc17) animals that are sterile due to a spermatogenesis defect.
Resveratrol and picetannol were obtained from commercial sources (Sigma-Aldrich, Inc. and Calbiochem-Novobiochem Corp., respectively). The methoxylated stilbenes pinostilbene, desoxyrhapontigenin, 3-hydroxy-5,4'-dimethoxystilbene and pterostilbene (Figure 1) were synthesized by partial methylation of trans-resveratrol as previously reported. The methoxylated stilbenes were purified by preparative layer chromatography (Merck Silica gel 60 F254; EMD Chemicals Inc., Gibbstown, NJ) using the developing solvent chloroform:methanol (96:4) with 1% formic acid. […] These stilbenes were identified from their ^1H-NMR spectra (Bruker 400 MHz; Bruker, Billerica, MA). All stilbenes were dissolved in ethanol to 25 mg/mL before use. 5-Fluoro-deoxyuracil (Sigma Chemical Co.) was dissolved to 1 mg/mL in sterile water and stored frozen at -20°C until use. For treating C. elegans adults, each compound was added in a 200 μL volume to the top of a 1-day old bacterial lawn grown on NGM medium to final concentrations as indicated. Compounds were allowed 2 hours to diffuse through the agar medium before animals were added.
For survival analyses, synchronized populations of sterile fem-1(hc17) hermaphrodites were obtained by first transferring several fertile hermaphrodites to a fresh plate at 25°C and allowing them to lay eggs for several hours. The parent hermaphrodites were removed and embryos were allowed to develop into sterile adults at 25°C, which takes approximately 48 hours. On the first day of adulthood, referred to as day 0, sterile adults were transferred onto fresh media supplemented with stilbenes at indicated concentrations, and maintained at 25°C. Adult survival was scored every 2–3 days by the animal's ability to move in response to a gentle mechanical stimulus. Statistical analysis of survival was performed using the JMP software package.

As to `COc1ccc(/C=C/c2cc(OC)cc(OC)c2)cc1` [Resveratrol-trimethylether, resveratrol-trimethylether], in series [1], the “steady-state level relative to pterostilbene” value was “less than one-third the level of pterostilbene”. Further, the “Mean lifespan, Treated” value came out at 9.7 days in series [2] (Trial 1, 100 μM in medium, from day 0 of adulthood, 25°C, control 12.16 days); 7.72 days in series [2] (Trial 4, 20 μM, control 11.26 days); 7.72 days in series [2] (Trial 4, 40 μM, control 11.26 days); 7.18 days in series [2] (Trial 4, 100 μM, control 11.26 days); 18.83 days in series [2] (Trial 5, 5 μM, control 18.49 days); 16.41 days in series [2] (Trial 5, 20 μM, control 18.49 days). Also, the “Mean lifespan, Treated” value in series [2] (Trial 5, 100 μM, control 18.49 days) is 15.18 days; in series [2] (Trial 6, 20 μM, control 15.32 days), 9.02 days; in series [2] (Trial 6, 40 μM, control 15.32 days), 7.98 days; in series [2] (Trial 6, 100 μM, control 15.32 days), 7.54 days. Moreover, the Relative survival in series [2] (Trial 1, 100 μM, treated vs control mean lifespan) was 80%; in series [2] (Trial 4, 20 μM), 69%; in series [2] (Trial 4, 40 μM) it was 69%; in series [2] (Trial 4, 100 μM) it was 64%; in series [2] (Trial 5, 5 μM), 102%; in series [2] (Trial 5, 20 μM), 89%. The Relative survival in series [2] (Trial 5, 100 μM) is reported as 82%; in series [2] (Trial 6, 20 μM), 59%; in series [2] (Trial 6, 40 μM) it was 52%; in series [2] (Trial 6, 100 μM), 49%.
